Reference: the NIST ThermoML archive (doi:10.1007/s10765-009-0602-6)
± gives the expanded uncertainty stated by the source.

Test: molar heat capacity at constant volume; xn = mol fraction of the nth substance listed
Conditions: x1 = 0.2607

N [ammonia] + O
Conditions | molar heat capacity at constant volume [J/K/mol]
581.09 K, Fluid (supercritical or subcritical phases), Mass density=476.25 kg/m3, isochoric heat capacity | 67.71 ± 2.7
581.18 K, Fluid (supercritical or subcritical phases), Mass density=476.25 kg/m3, isochoric heat capacity | 67.34 ± 2.7
581.36 K, Fluid (supercritical or subcritical phases), Mass density=476.25 kg/m3, isochoric heat capacity | 66.28 ± 2.6
581.54 K, Fluid (supercritical or subcritical phases), Mass density=476.25 kg/m3, isochoric heat capacity | 66.75 ± 2.7
581.62 K, Fluid (supercritical or subcritical phases), Mass density=476.25 kg/m3, isochoric heat capacity | 66.08 ± 2.6
584.62 K, Fluid (supercritical or subcritical phases), Mass density=476.25 kg/m3, isochoric heat capacity | 65.81 ± 2.6
584.71 K, Fluid (supercritical or subcritical phases), Mass density=476.25 kg/m3, isochoric heat capacity | 65.01 ± 2.6
584.8 K, Fluid (supercritical or subcritical phases), Mass density=476.25 kg/m3, isochoric heat capacity | 64.64 ± 2.6
584.88 K, Fluid (supercritical or subcritical phases), Mass density=476.25 kg/m3, isochoric heat capacity | 65.32 ± 2.6
584.95 K, Fluid (supercritical or subcritical phases), Mass density=456.58 kg/m3, isochoric heat capacity | 82.04 ± 3.3
584.95 K, Liquid, Isochoric heat capacity | 82.04 ± 3.3
584.97 K, Fluid (supercritical or subcritical phases), Mass density=476.25 kg/m3, isochoric heat capacity | 65.26 ± 2.6
584.98 K, Fluid (supercritical or subcritical phases), Mass density=456.58 kg/m3, isochoric heat capacity | 80.98 ± 3.2
585.15 K, Fluid (supercritical or subcritical phases), Mass density=476.25 kg/m3, isochoric heat capacity | 64.62 ± 2.6
585.16 K, Fluid (supercritical or subcritical phases), Mass density=456.58 kg/m3, isochoric heat capacity | 80.57 ± 3.2
585.31 K, Fluid (supercritical or subcritical phases), Mass density=120.03 kg/m3, isochoric heat capacity | 115.43 ± 5.2
585.31 K, Liquid, Isochoric heat capacity | 115.43 ± 4.6
585.34 K, Fluid (supercritical or subcritical phases), Mass density=120.03 kg/m3, isochoric heat capacity | 110.25 ± 5
585.4 K, Fluid (supercritical or subcritical phases), Mass density=120.03 kg/m3, isochoric heat capacity | 96.96 ± 4.1
585.42 K, Fluid (supercritical or subcritical phases), Mass density=456.58 kg/m3, isochoric heat capacity | 79.9 ± 3.2
585.48 K, Fluid (supercritical or subcritical phases), Mass density=120.03 kg/m3, isochoric heat capacity | 94.87 ± 4.1
585.5 K, Fluid (supercritical or subcritical phases), Mass density=456.58 kg/m3, isochoric heat capacity | 80.27 ± 3.2
585.62 K, Fluid (supercritical or subcritical phases), Mass density=120.03 kg/m3, isochoric heat capacity | 76.93 ± 3.4
585.68 K, Fluid (supercritical or subcritical phases), Mass density=456.58 kg/m3, isochoric heat capacity | 78.28 ± 3.1
585.94 K, Fluid (supercritical or subcritical phases), Mass density=120.03 kg/m3, isochoric heat capacity | 64.29 ± 2.8
586.02 K, Fluid (supercritical or subcritical phases), Mass density=120.03 kg/m3, isochoric heat capacity | 59.53 ± 2.5
586.11 K, Fluid (supercritical or subcritical phases), Mass density=120.03 kg/m3, isochoric heat capacity | 58.12 ± 2.4
586.2 K, Fluid (supercritical or subcritical phases), Mass density=120.03 kg/m3, isochoric heat capacity | 53.99 ± 2.3
586.28 K, Fluid (supercritical or subcritical phases), Mass density=120.03 kg/m3, isochoric heat capacity | 54.52 ± 2.3
586.37 K, Fluid (supercritical or subcritical phases), Mass density=120.03 kg/m3, isochoric heat capacity | 51.14 ± 2.1
587.06 K, Fluid (supercritical or subcritical phases), Mass density=456.58 kg/m3, isochoric heat capacity | 75.4 ± 3
587.24 K, Fluid (supercritical or subcritical phases), Mass density=456.58 kg/m3, isochoric heat capacity | 75.97 ± 3
587.41 K, Fluid (supercritical or subcritical phases), Mass density=456.58 kg/m3, isochoric heat capacity | 75.31 ± 3
587.5 K, Fluid (supercritical or subcritical phases), Mass density=456.58 kg/m3, isochoric heat capacity | 74.46 ± 3
587.58 K, Fluid (supercritical or subcritical phases), Mass density=456.58 kg/m3, isochoric heat capacity | 76.18 ± 3.1
594.14 K, Fluid (supercritical or subcritical phases), Mass density=147.43 kg/m3, isochoric heat capacity | 103.92 ± 4.4
594.14 K, Liquid, Isochoric heat capacity | 103.92 ± 4.2
594.15 K, Fluid (supercritical or subcritical phases), Mass density=147.43 kg/m3, isochoric heat capacity | 93.04 ± 3.7
594.23 K, Fluid (supercritical or subcritical phases), Mass density=147.43 kg/m3, isochoric heat capacity | 91.23 ± 3.9
594.32 K, Fluid (supercritical or subcritical phases), Mass density=147.43 kg/m3, isochoric heat capacity | 82.61 ± 3.6
594.49 K, Fluid (supercritical or subcritical phases), Mass density=147.43 kg/m3, isochoric heat capacity | 80.43 ± 3.5
594.58 K, Fluid (supercritical or subcritical phases), Mass density=120.03 kg/m3, isochoric heat capacity | 43.51 ± 1.8
594.58 K, Fluid (supercritical or subcritical phases), Mass density=147.43 kg/m3, isochoric heat capacity | 67.31 ± 2.9
594.66 K, Fluid (supercritical or subcritical phases), Mass density=120.03 kg/m3, isochoric heat capacity | 46.88 ± 1.9
594.66 K, Fluid (supercritical or subcritical phases), Mass density=147.43 kg/m3, isochoric heat capacity | 62.24 ± 2.6
594.75 K, Fluid (supercritical or subcritical phases), Mass density=120.03 kg/m3, isochoric heat capacity | 46.35 ± 1.9
594.75 K, Fluid (supercritical or subcritical phases), Mass density=147.43 kg/m3, isochoric heat capacity | 60.82 ± 2.5
594.78 K, Fluid (supercritical or subcritical phases), Mass density=120.03 kg/m3, isochoric heat capacity | 43.67 ± 1.8
594.84 K, Fluid (supercritical or subcritical phases), Mass density=147.43 kg/m3, isochoric heat capacity | 66.35 ± 2.8
594.92 K, Fluid (supercritical or subcritical phases), Mass density=147.43 kg/m3, isochoric heat capacity | 53.4 ± 2.2
595.01 K, Fluid (supercritical or subcritical phases), Mass density=120.03 kg/m3, isochoric heat capacity | 47.77 ± 1.9
595.09 K, Fluid (supercritical or subcritical phases), Mass density=147.43 kg/m3, isochoric heat capacity | 56.72 ± 2.3
595.1 K, Fluid (supercritical or subcritical phases), Mass density=456.58 kg/m3, isochoric heat capacity | 70.87 ± 2.8
595.16 K, Fluid (supercritical or subcritical phases), Mass density=376.89 kg/m3, isochoric heat capacity | 99.09 ± 4
595.16 K, Liquid, Isochoric heat capacity | 99.09 ± 4
595.18 K, Fluid (supercritical or subcritical phases), Mass density=147.43 kg/m3, isochoric heat capacity | 52.64 ± 2.1
595.18 K, Fluid (supercritical or subcritical phases), Mass density=376.89 kg/m3, isochoric heat capacity | 96.84 ± 3.9
595.18 K, Fluid (supercritical or subcritical phases), Mass density=456.58 kg/m3, isochoric heat capacity | 70.11 ± 2.8
595.27 K, Fluid (supercritical or subcritical phases), Mass density=376.89 kg/m3, isochoric heat capacity | 95.54 ± 3.8
595.35 K, Fluid (supercritical or subcritical phases), Mass density=456.58 kg/m3, isochoric heat capacity | 71.12 ± 2.8
595.44 K, Fluid (supercritical or subcritical phases), Mass density=147.43 kg/m3, isochoric heat capacity | 50.03 ± 2
595.44 K, Fluid (supercritical or subcritical phases), Mass density=376.89 kg/m3, isochoric heat capacity | 96.07 ± 3.8
595.44 K, Fluid (supercritical or subcritical phases), Mass density=456.58 kg/m3, isochoric heat capacity | 68.76 ± 2.8
595.53 K, Fluid (supercritical or subcritical phases), Mass density=376.89 kg/m3, isochoric heat capacity | 92.7 ± 3.7
595.53 K, Fluid (supercritical or subcritical phases), Mass density=456.58 kg/m3, isochoric heat capacity | 71.34 ± 2.9
595.61 K, Fluid (supercritical or subcritical phases), Mass density=376.89 kg/m3, isochoric heat capacity | 94.85 ± 3.8
595.61 K, Fluid (supercritical or subcritical phases), Mass density=456.58 kg/m3, isochoric heat capacity | 68.53 ± 2.7
595.7 K, Fluid (supercritical or subcritical phases), Mass density=147.43 kg/m3, isochoric heat capacity | 52.76 ± 2.1
595.7 K, Fluid (supercritical or subcritical phases), Mass density=456.58 kg/m3, isochoric heat capacity | 70.96 ± 2.8
595.78 K, Fluid (supercritical or subcritical phases), Mass density=376.89 kg/m3, isochoric heat capacity | 89.45 ± 3.6
595.87 K, Fluid (supercritical or subcritical phases), Mass density=376.89 kg/m3, isochoric heat capacity | 91.17 ± 3.6
595.96 K, Fluid (supercritical or subcritical phases), Mass density=376.89 kg/m3, isochoric heat capacity | 88.44 ± 3.5
597.16 K, Fluid (supercritical or subcritical phases), Mass density=376.89 kg/m3, isochoric heat capacity | 87.9 ± 3.5
597.35 K, Fluid (supercritical or subcritical phases), Mass density=160.07 kg/m3, isochoric heat capacity | 101.99 ± 4.1
597.36 K, Liquid, Isochoric heat capacity | 101.99 ± 4.1
597.38 K, Fluid (supercritical or subcritical phases), Mass density=160.07 kg/m3, isochoric heat capacity | 81.69 ± 3.3
597.43 K, Fluid (supercritical or subcritical phases), Mass density=160.07 kg/m3, isochoric heat capacity | 69.47 ± 2.8
597.5 K, Fluid (supercritical or subcritical phases), Mass density=376.89 kg/m3, isochoric heat capacity | 85.95 ± 3.4
597.53 K, Fluid (supercritical or subcritical phases), Mass density=160.07 kg/m3, isochoric heat capacity | 62.62 ± 2.5
597.56 K, Fluid (supercritical or subcritical phases), Mass density=342.18 kg/m3, isochoric heat capacity | 110.99 ± 4.4
597.56 K, Liquid, Isochoric heat capacity | 110.99 ± 4.4
